# Assay results from paper PMC11850406, “Large-scale screening of HIV-1 T-cell epitopes restricted by 12 prevalent HLA-A allotypes in Northeast Asia and universal detection of HIV-1-specific CD8^+ T cells” (Frontiers in Microbiology, 2025).
# Read-outs that look alike come from different tables or passages of the source. Where no end group is shown, it is not given here.
# Assays:
# HLA-A1101 = biological target: T1, HLA-A1101 (Homo sapiens, UniProt P04439, A114D/D185E/E176A/F33Y/L180Q/S129P/T187R); assay: cell-based; format: binding; settings: for inhibition at 5 µM: read-out: 5-μM inhibition (%); for inhibition at 15 µM: read-out: 15-μM inhibition (%)
# T1 construct: expressed in transfected cells; host or cells: HMy2.CIR
# HLA-A0203 = biological target: T2, HLA-A0203 (Homo sapiens, UniProt P04439, A173T/D140Y/D185E/D98H/E277Q/G131W/G231S/I119V/I121R/I166T/I218V/L180W/L300P/L318F/N151K/N90K/P208A/P217A/Q86G/Q94H/R138H/R169H/T345S); assay: cell-based; format: binding; settings: for inhibition at 5 µM / 5-μM inhibition (%): peptide 5 μM vs FITC-labeled reference peptide 300 nM; for inhibition at 5 µM / inhibition at 15 µM / 5-μM inhibition (%) / 15-μM inhibition (%): 24 h, 4°C, flow cytometry; for inhibition at 5 µM: read-out: 5-μM inhibition (%); for inhibition at 15 µM / 15-μM inhibition (%): peptide 15 μM vs FITC-labeled reference peptide 300 nM; for inhibition at 15 µM: read-out: 15-μM inhibition (%)
# T2 construct: expressed in transfected cells; host or cells: HMy2.CIR
# HLA-A3303 = HLA-A3303 (Homo sapiens, UniProt P04439, A270S/D185E/E176V/E277Q/E87N/F33T/G231S/H175R/I121M/I218V/I322F/K168Q/L300P/L318F/M331R/P217A/Q86R/Q94H/R138Q/T323A/T345S/T97I/V358M); assay: Peptide competitive binding assay, HMy2.CIR cells expressing A3303; settings: for inhibition at 5 µM: peptide 5 μM vs FITC-labeled reference peptide 300 nM; for inhibition at 5 µM / inhibition at 15 µM: 24 h, 4°C, flow cytometry; for inhibition at 15 µM: peptide 15 μM vs FITC-labeled reference peptide 300 nM; for IC50: read-out: Affinity
# HLA-A0201 = biological target: T3, HLA-A0201 (Homo sapiens, UniProt P04439, D140Y/D185E/D98H/E176V/E277Q/G131W/G231S/I119V/I121R/I166T/I218V/L300P/L318F/N151K/N90K/P208A/P217A/Q86G/Q94H/R138H/R169H/T345S); assay: cell-based; format: binding; settings: for inhibition at 5 µM / 5-μM inhibition (%): peptide 5 μM vs FITC-labeled reference peptide 300 nM; for inhibition at 5 µM / inhibition at 15 µM / 5-μM inhibition (%) / 15-μM inhibition (%): 24 h, 4°C, flow cytometry; for inhibition at 5 µM: read-out: 5-μM inhibition (%); for inhibition at 15 µM / 15-μM inhibition (%): peptide 15 μM vs FITC-labeled reference peptide 300 nM; for inhibition at 15 µM: read-out: 15-μM inhibition (%)
# T3 construct: expressed in transfected cells; host or cells: HMy2.CIR
# HLA-A2402 = HLA-A2402 (Homo sapiens, UniProt P04439, D101N/D140Y/D185E/E176V/E190D/F33S/G103R/G107R/I119L/I121M/I306V/K335N/L105A/L180Q/L300P/N151K/N90K/Q86E/Q94H/R106L/R138H/R89G/T104I/T345S/V100E/W191G/Y123F); assay: cell-based; format: binding; settings: for inhibition at 5 µM / inhibition at 15 µM / 5-μM inhibition (%) / 15-μM inhibition (%): A2402, 24 h, 4°C, flow cytometry; for inhibition at 5 µM / 5-μM inhibition (%): peptide 5 μM vs FITC-labeled reference peptide 300 nM; for inhibition at 15 µM / 15-μM inhibition (%): peptide 15 μM vs FITC-labeled reference peptide 300 nM
# [1] = A1101, peptide 5 μM vs FITC-labeled reference peptide 300 nM, 24 h, 4°C, flow cytometry
# [2] = A1101, peptide 15 μM vs FITC-labeled reference peptide 300 nM, 24 h, 4°C, flow cytometry
sequence,measurement,setting,value
SSWSNKSQK [Peptide P24],5-μM inhibition (%),HLA-A1101; [1],20.55%
same,15-μM inhibition (%),HLA-A1101; [2],36.55%
TVQPIQLPEK [Peptide P35],IC50,HLA-A1101,< 5 µM
same,inhibition at 5 µM,HLA-A1101; [1],88.7%
same,inhibition at 15 µM,HLA-A1101; [2],93.9%
SVPLDESFRK [Peptide P42],IC50,HLA-A1101,< 5 µM
same,inhibition at 5 µM,HLA-A1101; [1],89.9%
same,inhibition at 15 µM,HLA-A1101; [2],93.8%
GMLMISSAV [Peptide P70],IC50,"HLA-A0203; A0203, class from inhibition at 5 and 15 μM of FITC-labeled reference peptide binding, read-out: Affinity",< 5 µM
same,inhibition at 5 µM,HLA-A0203; A0203,71.4%
same,inhibition at 15 µM,HLA-A0203; A0203,85.5%
TFYVDGAASR [Peptide P110],inhibition at 5 µM,HLA-A3303; A3303,78.2%
same,inhibition at 15 µM,HLA-A3303; A3303,90.1%
same,IC50,HLA-A3303,< 5 µM
GTYTPNGTK [Peptide P22],IC50,HLA-A1101,5 to 15 µM
same,inhibition at 5 µM,HLA-A1101; [1],43.2%
same,inhibition at 15 µM,HLA-A1101; [2],87.4%
SLVDTIAIAV [Peptide P1],IC50,"HLA-A0201; A0201, class from inhibition at 5 and 15 μM of FITC-labeled reference peptide binding, read-out: Affinity",5 to 15 µM
same,inhibition at 5 µM,HLA-A0201; A0201,38%
same,inhibition at 15 µM,HLA-A0201; A0201,78.5%
same,inhibition at 5 µM,HLA-A0203; A0203,28.2%
same,inhibition at 15 µM,HLA-A0203; A0203,31.9%
KTIIVHLNK [Peptide P19],5-μM inhibition (%),HLA-A0201; A0201,0.00%
same,15-μM inhibition (%),HLA-A0201; A0201,4.54%
NYTNQIYEI [Peptide P47],IC50,HLA-A2402,< 5 µM
same,inhibition at 5 µM,HLA-A2402,87.5%
same,inhibition at 15 µM,HLA-A2402,94.5%
KYRLKHLVW [Peptide P54],IC50,HLA-A2402,5 to 15 µM
same,inhibition at 5 µM,HLA-A2402,35.8%
same,inhibition at 15 µM,HLA-A2402,79.5%
VTENFNMWK [Peptide P26],IC50,HLA-A1101,< 5 µM
same,inhibition at 5 µM,HLA-A1101; [1],86.6%
same,inhibition at 15 µM,HLA-A1101; [2],92.9%
DAWEKIRLR [Peptide P104],inhibition at 5 µM,HLA-A3303; A3303,71.8%
same,inhibition at 15 µM,HLA-A3303; A3303,82.5%
same,IC50,HLA-A3303,< 5 µM
HYMLKHLVW [Peptide P55],5-μM inhibition (%),HLA-A2402,13.48%
same,15-μM inhibition (%),HLA-A2402,31.20%
WWMEYWQATW [Peptide P57],IC50,HLA-A2402,5 to 15 µM
same,inhibition at 5 µM,HLA-A2402,29.2%
same,inhibition at 15 µM,HLA-A2402,70.7%
QMQEDVISL [Peptide P4],5-μM inhibition (%),HLA-A0201; A0201,10.81%
same,15-μM inhibition (%),HLA-A0201; A0201,44.70%
same,5-μM inhibition (%),HLA-A0203; A0203,0.00%
same,15-μM inhibition (%),HLA-A0203; A0203,0.00%
FYCNTTKLF [Peptide P49],IC50,HLA-A2402,5 to 15 µM
same,inhibition at 5 µM,HLA-A2402,49.2%
same,inhibition at 15 µM,HLA-A2402,60.5%
YMLKHLVWA [Peptide P7],5-μM inhibition (%),HLA-A0201; A0201,8.94%
same,15-μM inhibition (%),HLA-A0201; A0201,16.50%
same,5-μM inhibition (%),HLA-A0203; A0203,3.83%
same,15-μM inhibition (%),HLA-A0203; A0203,19.15%
ALFYKLDIV [Peptide P2],IC50,HLA-A0201,5 to 15 µM
same,inhibition at 5 µM,HLA-A0201; A0201,23.2%
same,inhibition at 15 µM,HLA-A0201; A0201,70.5%
same,IC50,HLA-A0203,5 to 15 µM
same,inhibition at 5 µM,HLA-A0203; A0203,26.1%
same,inhibition at 15 µM,HLA-A0203; A0203,61.9%
MYAPPISGR [Peptide P106],IC50,"HLA-A3303; A3303, class from inhibition at 5 and 15 μM of FITC-labeled reference peptide binding",< 5 µM
same,inhibition at 5 µM,HLA-A3303; A3303,72.8%
same,inhibition at 15 µM,HLA-A3303; A3303,81.5%
RQGTISFNF [Peptide P61],5-μM inhibition (%),HLA-A2402,12.82%
same,15-μM inhibition (%),HLA-A2402,41.47%
IIFAVLSIV [Peptide P5],inhibition at 5 µM,HLA-A0201; A0201,20.6%
same,inhibition at 15 µM,HLA-A0201; A0201,42.8%
same,IC50,HLA-A0203,5 to 15 µM
same,inhibition at 5 µM,HLA-A0203; A0203,31%
same,inhibition at 15 µM,HLA-A0203; A0203,64.6%
MAVFIHNFKR [Peptide P109],inhibition at 5 µM,HLA-A3303; A3303,55.1%
same,inhibition at 15 µM,HLA-A3303; A3303,56.1%
same,IC50,HLA-A3303,< 5 µM
TYQIYQEPF [Peptide P58],IC50,HLA-A2402,< 5 µM
same,inhibition at 5 µM,HLA-A2402,54.1%
same,inhibition at 15 µM,HLA-A2402,95.3%
SVIKQACPK [Peptide P21],IC50,HLA-A1101,5 to 15 µM
same,inhibition at 5 µM,HLA-A1101; [1],29.7%
same,inhibition at 15 µM,HLA-A1101; [2],68.9%
VQMAVFIHNF [Peptide P64],IC50,HLA-A2402,5 to 15 µM
same,inhibition at 5 µM,HLA-A2402,31.2%
same,inhibition at 15 µM,HLA-A2402,50.2%
FYCNTSGLF [Peptide P46],IC50,HLA-A2402,< 5 µM
same,inhibition at 5 µM,HLA-A2402,95%
same,inhibition at 15 µM,HLA-A2402,99.5%
ALQTGTEEL [Peptide P8],5-μM inhibition (%),HLA-A0201; A0201,0.00%
same,15-μM inhibition (%),HLA-A0201; A0201,14.68%
same,5-μM inhibition (%),HLA-A0203; A0203,0.00%
same,15-μM inhibition (%),HLA-A0203; A0203,5.56%
